Where “and” joins values, the source holds several entries; their conditions need not be identical. Equal values may be shown once.
Experiments:
[1] = tested on: Glomerella lagenarium (Colletotrichum lagenarium); experiment: Glomerella lagenarium (Colletotrichum lagenarium) liquid culture / cucumber / preventative (anthracnose); type: cell-based; settings: Colletotrichum orbiculare, liquid culture (PDB), growth inhibition measured photometrically 3-4 days after application, compared to untreated control
Protocol: […] fragments or conidia suspensions of a fungus prepared either freshly from liquid cultures of the fungus or from cryogenic storage, are directly mixed into nutrient broth. DMSO solutions of the test compound (max. 10 mg/ml) are diluted with 0.025% Tween20 by a factor of 50 and 10 μl of this solution is pipetted into a microtiter plate (96-well format). The nutrient broth containing the fungal spores/mycelia fragments is then added to give an end concentration of the tested compound. The test plates are incubated in the dark at 24° C., and 96% relative humidity. The inhibition of fungal growth is determined photometrically after 2 to 7 days, depending on the pathosystem, and percent antifungal activity relative to the untreated check is calculated. Conidia of the fungus from cryogenic storage are directly mixed into nutrient broth (PDB potato dextrose broth). Alter placing a (DMSO) solution of test compound into a microtiter plate (96-well format), the nutrient broth containing the fungal spores is added. The test plates are incubated at 24° C., and the inhibition of growth is measured photometrically 3-4 days after application.

[2] = tested on: Puccinia recondita f. sp. tritici; experiment: Puccinia recondita f. sp. tritici / wheat / leaf disc preventative (brown rust); type: in vivo; settings: foliar, wheat leaf segments cv. Kanzler, preventative (inoculated 1 day after application), compared to untreated control
Protocol: Leaf disks or leaf segments of various plant species are cut from plants grown in a greenhouse. The cut leaf disks or segments are placed in multiwell plates (24-well format) onto water agar. The leaf disks are sprayed with a test solution before (preventative) or after (curative) inoculation. Compounds to be tested are prepared as DMSO solutions (max. 10 mg/ml) which are diluted to the appropriate concentration with 0.025% Tween20 just before spraying. The inoculated leaf disks or segments are incubated under defined conditions (temperature, relative humidity, light, etc.) according to the respective test system. A single evaluation of disease level is carried out 3 to 14 days after inoculation, depending on the pathosystem. Percent disease control relative to the untreated check leaf disks or segments is then calculated. Wheat leaf segments cv. Kanzler are placed on agar in multiwell plates (24-well format) and sprayed with the formulated test compound diluted in water. The leaf disks are inoculated with a spore suspension of the fungus 1 day after application. The inoculated leaf segments are incubated at 19° C. and 75% rh under a light regime of 12 h light/12 h darkness in a climate cabinet and the activity of a compound is assessed as percent disease control compared to untreated when an appropriate level of disease damage appears in untreated check leaf segments (7-9 days after application).

[3] = tested on: Puccinia recondita f. sp. tritici; experiment: Puccinia recondita f. sp. tritici / wheat / leaf disc curative (brown rust); type: in vivo; settings: foliar, 24 h, wheat leaf segments cv. Kanzler, curative (applied 1 day after inoculation), compared to untreated control, read-out: control of Puccinia recondita f. sp. tritic
Protocol: Leaf disks or leaf segments of various plant species are cut from plants grown in a greenhouse. The cut leaf disks or segments are placed in multiwell plates (24-well format) onto water agar. The leaf disks are sprayed with a test solution before (preventative) or after (curative) inoculation. Compounds to be tested are prepared as DMSO solutions (max. 10 mg/ml) which are diluted to the appropriate concentration with 0.025% Tween20 just before spraying. The inoculated leaf disks or segments are incubated under defined conditions (temperature, relative humidity, light, etc.) according to the respective test system. A single evaluation of disease level is carried out 3 to 14 days after inoculation, depending on the pathosystem. Percent disease control relative to the untreated check leaf disks or segments is then calculated. Wheat leaf segments cv. Kanzler are placed on agar in multiwell plates (24-well format). The leaf segments are inoculated with a spore suspension of the fungus. Plates are stored in darkness at 19° C., and 75% rh. The formulated test compound diluted in water is applied 1 day after inoculation. The leaf segments are incubated at 19° C., and 75% rh under a light regime of 12 h light/12 h darkness in a climate cabinet and the activity of a compound is assessed as percent disease control compared to untreated when an appropriate level of disease damage appears in untreated check leaf segments (6-8 days after application).

Phakopsora pachyrhizi = Phakopsora pachyrhizi / soybean / leaf disc preventative (Asian soybean rust); type: in vivo; settings: foliar, soybean leaf disks, compared to untreated control
Protocol: Leaf disks or leaf segments of various plant species are cut from plants grown in a greenhouse. The cut leaf disks or segments are placed in multiwell plates (24-well format) onto water agar. The leaf disks are sprayed with a test solution before (preventative) or after (curative) inoculation. Compounds to be tested are prepared as DMSO solutions (max. 10 mg/ml) which are diluted to the appropriate concentration with 0.025% Tween20 just before spraying. The inoculated leaf disks or segments are incubated under defined conditions (temperature, relative humidity, light, etc.) according to the respective test system. A single evaluation of disease level is carried out 3 to 14 days after inoculation, depending on the pathosystem. Percent disease control relative to the untreated check leaf disks or segments is then calculated. Soybean leaf disks are placed on water agar in multiwell plates (24-well format) and sprayed with the formulated test compound diluted in water. One day after application leaf discs are inoculated by spraying a spore suspension on the lower leaf surface. After an incubation period in a climate cabinet of 24-36 hours in darkness at 20° C., and 75% rh leaf disc are kept at 20° C. with 12 h light/day and 75% rh. The activity of a compound is assessed as percent disease control compared to untreated when an appropriate level of disease damage appears in untreated check leaf disks (12-14 days after application).

| Compound | melting point | inhibition of growth at 20 ppm [1] | pest or weed control at 200 ppm [2] | pest or weed control at 200 ppm [3] | pest or weed control at 200 ppm (Phakopsora pachyrhizi) |
| --- | --- | --- | --- | --- | --- |
| O=C(NN1CCOC1=O)c1ccc(-c2noc(C(F)(F)F)n2)cc1F [Compound 1.3, 2-fluoro-N-(2-oxooxazolidin-3-yl)-4-[5-(trifluoromethyl)-1,2,4-oxadiazol-3-yl]benzamide] | 186 to 189 °C and 186.8 to 188.8 °C | ≥ 80% | ≥ 80% | ≥ 80% | ≥ 80% |
| O=C(NN1CCOCC1)c1ccc(-c2noc(C(F)(F)F)n2)cc1F [Compound 1.15, 2-fluoro-N-morpholino-4-[5-(trifluoromethyl)-1,2,4-oxadiazol-3-yl]benzamide] | 140 to 160 °C | ≥ 80% | ≥ 80% | ≥ 80% | ≥ 80% |
| O=C(NN1CCOC1=O)c1ccc(-c2noc(C(F)(F)F)n2)cc1 [Compound 1.19, N-(2-oxooxazolidin-3-yl)-4-[5-(trifluoromethyl)-1,2,4-oxadiazol-3-yl]benzamide] | 196 to 200 °C | ≥ 80% | ≥ 80% | ≥ 80% | ≥ 80% |
| O=C(Cc1ccc(-c2noc(C(F)(F)F)n2)cc1)NN1CCOC1=O [Compound 1.21, N-(2-oxooxazolidin-3-yl)-2-[4-[5-(trifluoromethyl)-1,2,4-oxadiazol-3-yl]phenyl]acetamide] | 184 to 187 °C | ≥ 80% | ≥ 80% | ≥ 80% | ≥ 80% |

Now from value to compound, other results behind:

| melting point | Compound | inhibition of growth at 20 ppm [1] | pest or weed control at 200 ppm [2] | pest or weed control at 200 ppm [3] | pest or weed control at 200 ppm (Phakopsora pachyrhizi) |
| --- | --- | --- | --- | --- | --- |
| 120 to 136 °C | O=C(NN1CCCCC1=O)c1ccc(-c2noc(C(F)(F)F)n2)cc1F [Compound 1.23, 2-fluoro-N-(2-oxo-1-piperidyl)-4-[5-(trifluoromethyl)-1,2,4-oxadiazol-3-yl]benzamide] | ≥ 80% | ≥ 80% | ≥ 80% | ≥ 80% |
| 180 to 200 °C | O=C(NN1CCCCC1=O)c1ccc(-c2noc(C(F)(F)F)n2)c(F)c1 [Compound 1.24, 3-fluoro-N-(2-oxo-1-piperidyl)-4-[5-(trifluoromethyl)-1,2,4-oxadiazol-3-yl]benzamide] | ≥ 80% | ≥ 80% | ≥ 80% | ≥ 80% |
| 156 to 158 °C | CN(C)NC(=O)Cc1ccc(-c2noc(C(F)(F)F)n2)cc1F [Compound 1.26, 2-[2-fluoro-4-[5-(trifluoromethyl)-1,2,4-oxadiazol-3-yl]phenyl]-N′,N′-dimethyl-acetohydrazide] | ≥ 80% | ≥ 80% | ≥ 80% | ≥ 80% |
| 180 to 182 °C | CN(C)NC(=O)Cc1ccc(-c2noc(C(F)(F)F)n2)cc1 [Compound 1.27, N′,N′-dimethyl-2-[4-[5-(trifluoromethyl)-1,2,4-oxadiazol-3-yl]phenyl]-acetohydrazide] | ≥ 80% | ≥ 80% | ≥ 80% | ≥ 80% |

— patent US20190292174A1, “MICROBIOCIDAL OXADIAZOLE DERIVATIVES” (SYNGENTA PARTICIPATIONS AG, priority 2016, published 2019)
